Data taken from patent publication US9957263B2, “Bromodomain inhibitors” (AbbVie Inc., priority 2013, dated 2018).

Legend:
BRD4 (BDII_E352-M457) = BRD4 (BDII_E352-M457) (Homo sapiens (Human), UniProt O60885); assay: TR-FRET bromodomain binding assay, BRD4 second bromodomain; details: His-tagged BD2, Alexa647-labeled probe 30 nM
Outline: (§1)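 Probe displacement, TR-FRET: 8 nM His-BRD4 domain, 1 nM Eu-anti-His, Alexa647 BET-inhibitor probe 100 nM (BDI)/30 nM (BDII); 20 mM Na phosphate pH 6.0, 50 mM NaCl, 1 mM DTT; cpd 50 μM-0.85 nM, 3-fold; 1 h RT; Ex 340/[…]; IC50 → Ki.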

BRD4 (BDI_K57-E168) = BRD4 (BDI_K57-E168) (Homo sapiens (Human), UniProt O60885); assay: TR-FRET bromodomain binding assay, BRD4 first bromodomain; details: His-tagged BD1, Alexa647-labeled probe 100 nM
Outline: as §1

Row | SMILES | Ki (BRD4 (BDII_E352-M457)) [nM] | Ki (BRD4 (BDI_K57-E168)) [nM]
1 | Cn1cc(-c2cc(S(C)(=O)=O)ccc2NC2CCN(C(=O)CN3CCCC3)CC2)c2cc[nH]c2c1=O [Example 97, 6-methyl-4-[5-(methylsulfonyl)-2-{[1-(pyrrolidin-1-ylacetyl)piperidin-4-yl]amino}phenyl]-1,6-dihydro-7H-pyrrolo[2,3-c]pyridin-7-one] | 28 | 10
2 | COCCOCC(=O)N1CCC(Nc2ccc(S(C)(=O)=O)cc2-c2cn(C)c(=O)c3[nH]ccc23)CC1 [Example 98, 4-[2-({1-[(2-methoxyethoxy)acetyl]piperidin-4-yl}amino)-5-(methylsulfonyl)phenyl]-6-methyl-1,6-dihydro-7H-pyrrolo[2,3-c]pyridin-7-one] | 20 | 14
3 | Cn1cc(-c2cc(S(C)(=O)=O)ccc2NC2CCN(C(=O)CCN3CCOCC3)CC2)c2cc[nH]c2c1=O [Example 99, 6-methyl-4-[5-(methylsulfonyl)-2-({1-[3-(morpholin-4-yl)propanoyl]piperidin-4-yl}amino)phenyl]-1,6-dihydro-7H-pyrrolo[2,3-c]pyridin-7-one] | 28 | 12
4 | Cn1cc(-c2cc(S(C)(=O)=O)ccc2NC2CCN(S(=O)(=O)Cc3ccccc3)CC2)c2cc[nH]c2c1=O [Example 101, 4-[2-{[1-(benzylsulfonyl)piperidin-4-yl]amino}-5-(methylsulfonyl)phenyl]-6-methyl-1,6-dihydro-7H-pyrrolo[2,3-c]pyridin-7-one] | 5.8 | 6
5 | CC(=O)Nc1ccc(S(=O)(=O)N2CCC(Nc3ccc(S(C)(=O)=O)cc3-c3cn(C)c(=O)c4[nH]ccc34)CC2)cc1 [Example 103, N-{4-[(4-{[2-(6-methyl-7-oxo-6,7-dihydro-1H-pyrrolo[2,3-c]pyridin-4-yl)-4-(methylsulfonyl)phenyl]amino}piperidin-1-yl)sulfonyl]phenyl}acetamide] | 4.9 | 4.1
6 | COc1ccc(S(=O)(=O)N2CCC(Nc3ccc(S(C)(=O)=O)cc3-c3cn(C)c(=O)c4[nH]ccc34)CC2)cc1 [Example 104, 4-[2-({1-[(4-methoxyphenyl)sulfonyl]piperidin-4-yl}amino)-5-(methylsulfonyl)phenyl]-6-methyl-1,6-dihydro-7H-pyrrolo[2,3-c]pyridin-7-one] | 4 | 4.6
7 | Cn1cc(-c2cc(S(C)(=O)=O)ccc2NC2CCN(S(=O)(=O)c3cccc(C#N)c3)CC2)c2cc[nH]c2c1=O [Example 105, 3-[(4-{[2-(6-methyl-7-oxo-6,7-dihydro-1H-pyrrolo[2,3-c]pyridin-4-yl)-4-(methylsulfonyl)phenyl]amino}piperidin-1-yl)sulfonyl]benzonitrile] | 17 | 7.2
8 | Cn1cc(-c2cc(S(C)(=O)=O)ccc2NC2CCN(S(=O)(=O)c3cccs3)CC2)c2cc[nH]c2c1=O [Example 106, 6-methyl-4-[5-(methylsulfonyl)-2-{[1-(thiophen-2-ylsulfonyl)piperidin-4-yl]amino}phenyl]-1,6-dihydro-7H-pyrrolo[2,3-c]pyridin-7-one] | 6.5 | 7.9
9 | Cn1cc(-c2cc(S(C)(=O)=O)ccc2N[C@H]2CC[C@H](NCc3cccs3)CC2)c2cc[nH]c2c1=O [Example 107, 6-methyl-4-[5-(methylsulfonyl)-2-({trans-4-[(thiophen-2-ylmethyl)amino]cyclohexyl}amino)phenyl]-1,6-dihydro-7H-pyrrolo[2,3-c]pyridin-7-one] | 8.9 | 3
10 | CC(=O)Nc1ccc(CN[C@H]2CC[C@H](Nc3ccc(S(C)(=O)=O)cc3-c3cn(C)c(=O)c4[nH]ccc34)CC2)cc1 [Example 108, N-(4-{[(trans-4-{[2-(6-methyl-7-oxo-6,7-dihydro-1H-pyrrolo[2,3-c]pyridin-4-yl)-4-(methylsulfonyl)phenyl]amino}cyclohexyl)amino]methyl}phenyl)acetamide] | 5.6 | 3.4
11 | Cn1cc(-c2cc(S(C)(=O)=O)ccc2N[C@H]2CC[C@H](NCc3ccc(F)cc3F)CC2)c2cc[nH]c2c1=O [Example 109, 4-[2-({trans-4-[(2,4-difluorobenzyl)amino]cyclohexyl}amino)-5-(methylsulfonyl)phenyl]-6-methyl-1,6-dihydro-7H-pyrrolo[2,3-c]pyridin-7-one] | 8.3 | 1.6
12 | Cn1cc(-c2cc(S(C)(=O)=O)ccc2N[C@H]2CC[C@H](NCc3ccc4ccccc4c3)CC2)c2cc[nH]c2c1=O [Example 110, 6-methyl-4-[5-(methylsulfonyl)-2-({trans-4-[(naphthalen-2-ylmethyl)amino]cyclohexyl}amino)phenyl]-1,6-dihydro-7H-pyrrolo[2,3-c]pyridin-7-one] | 2.2 | 1.1
13 | COCCN[C@H]1CC[C@H](Nc2ccc(S(C)(=O)=O)cc2-c2cn(C)c(=O)c3[nH]ccc23)CC1 [Example 111, 4-[2-({trans-4-[(2-methoxyethyl)amino]cyclohexyl}amino)-5-(methylsulfonyl)phenyl]-6-methyl-1,6-dihydro-7H-pyrrolo[2,3-c]pyridin-7-one] | 12 | 4.6
14 | CSCCCN[C@H]1CC[C@H](Nc2ccc(S(C)(=O)=O)cc2-c2cn(C)c(=O)c3[nH]ccc23)CC1 [Example 112, 6-methyl-4-{2-[(trans-4-{[3-(methylsulfanyl)propyl]amino}cyclohexyl)amino]-5-(methylsulfonyl)phenyl}-1,6-dihydro-7H-pyrrolo[2,3-c]pyridin-7-one] | 10 | 5.4
15 | Cn1cc(-c2cc(S(C)(=O)=O)ccc2N[C@H]2CC[C@H](NCc3ccc(Cl)cc3)CC2)c2cc[nH]c2c1=O [Example 113, 4-[2-({trans-4-[(4-chlorobenzyl)amino]cyclohexyl}amino)-5-(methylsulfonyl)phenyl]-6-methyl-1,6-dihydro-7H-pyrrolo[2,3-c]pyridin-7-one] | 7 | 2.5
16 | Cn1cc(-c2cc(S(C)(=O)=O)ccc2Oc2ccc(F)cc2F)c2cc(CN3CCN(c4nccs4)CC3)[nH]c2c1=O [Example 114, 4-[2-(2,4-difluorophenoxy)-5-(methylsulfonyl)phenyl]-6-methyl-2-{[4-(1,3-thiazol-2-yl)piperazin-1-yl]methyl}-1,6-dihydro-7H-pyrrolo[2,3-c]pyridin-7-one] | 80.7 | 6.93
17 | Cn1cc(-c2cc(S(C)(=O)=O)ccc2Oc2ccc(F)cc2F)c2cc(CN3CCN(C4CC4)CC3)[nH]c2c1=O [Example 115, 2-[(4-cyclopropylpiperazin-1-yl)methyl]-4-[2-(2,4-difluorophenoxy)-5-(methylsulfonyl)phenyl]-6-methyl-1,6-dihydro-7H-pyrrolo[2,3-c]pyridin-7-one] | 120 | 5.22
18 | Cn1cc(-c2cc(S(C)(=O)=O)ccc2Oc2ccc(F)cc2F)c2cc(CN3CCN(C4CCOCC4)CC3)[nH]c2c1=O [Example 116, 4-[2-(2,4-difluorophenoxy)-5-(methylsulfonyl)phenyl]-6-methyl-2-{[4-(tetrahydro-2H-pyran-4-yl)piperazin-1-yl]methyl}-1,6-dihydro-7H-pyrrolo[2,3-c]pyridin-7-one] | 98.4 | 3.33
19 | CCS(=O)(=O)c1ccc(Oc2ccc(F)cc2F)c(-c2cn(C)c(=O)c3[nH]c(-c4ccnn4-c4ccccc4)cc23)c1 [Example 117, 4-[2-(2,4-difluorophenoxy)-5-(ethylsulfonyl)phenyl]-6-methyl-2-(1-phenyl-1H-pyrazol-5-yl)-1,6-dihydro-7H-pyrrolo[2,3-c]pyridin-7-one] | 3.39 | 6.09
